{
  "source": "patent US20040241092A1",
  "about": "“Method for determining alleviation of pain in an animal” (priority 2003, published 2004)",
  "molecules": {"B1": {"name": "hrIL-6sR: commercially available recombinant human IL-6sR (interleukin-6 soluble receptor) purchased from R&D Systems (protein, UniProt P08887 20-365, looked up)", "extracellular domain": "LAPRRCPAQEVARGVLTSLPGDSVTLTCPGVEPEDNATVHWVLRKPAAGSHPSRWAGMGRRLLLRSVQLHDSGNYSCYRAGRPAGTVHLLVDVPPEEPQLSCFRKSPLSNVVCEWGPRSTPSLTTKAVLLVRKFQNSPAEDFQEPCQYSQESQKFSCQLAVPEGDSSFYIVSMCVASSVGSKFSKTQTFQGCGILQPDPPANITVTAVARNPRWLSVTWQDPHSWNSSFYRLRFELRYRAERSKTFTTWMVKDLQHHCVIHDAWSGLRHVVQLRAQEEFGQGEWSEWSPEAMGTPWTESRSPPAENEVSTPMQALTTNKDDDNILFRDSANATSLPVQDSSSVPLP", "modifications": "extracellular domain", "notes": "commercially available recombinant human IL-6sR (interleukin-6 soluble receptor) purchased from R&D Systems"}},
  "type_in_all_cases": "in vivo",
  "key": {"[1]": {"test_system": "rat knee joint", "assay": "(IL-6)-, (IL-6sR)-, (IL-6 plus IL-6sR)- and (heat inactivated IL-6 plus IL-6sR)-induced joint pain (Demonstration Example 3)", "details": "intra-articular in 50 μL PBS, 1 hour post injection", "experimental": "(§1) It should be appreciated that in all of the below examples, unless indicated otherwise, male Wistar rats (175-200 g) were housed in solid bottom isolator cages, 2-4 rats per cage, with corncob bedding on a 12 hour:12 hour light:dark cycle. Animals were fed standard rat chow with water available ad libitum.\nIt should be appreciated that in all of the below examples, hind paw weight bearing differentials between the paw of the limb having the control joint (in animals administered test compound vehicle only) and the paw of the limb having the contralateral test joint (in control or inducement animals administered test compound vehicle only and in treatment animals administered test compound dissolved in test compound vehicle) were determined using an incapacitance tester, model 2KG (Linton Instrumentation, Norfolk, United Kingdom). […] Each data point is the mean of three readings of 5 seconds duration. The hind paw weight bearing differentials were expressed in grams and calculated as the [sum of (the weight in grams placed on the control limb minus the weight in grams placed on the contralateral test limb for each animal in the inducement or treatment animal group)] divided by the number of animals in the inducement or treatment animal group. […]"}, "[2]": {"test_system": "rat knee joint", "assay": "(IL-6)-induced joint pain, hind paw weight bearing differential (Demonstration Example 1)", "details": "for change in hind paw weight differential compared to the vehicle control group: male Wistar rats", "experimental": "as §1\nIt should be appreciated that in all of the below examples, hind paw weight bearing differentials between the paw of the limb having the control joint (in animals administered test compound vehicle only) and the paw of the limb having the contralateral test joint (in control or inducement animals administered test compound vehicle only and in treatment animals administered test compound dissolved in test compound vehicle) were determined using an incapacitance tester, model 2KG (Linton Instrumentation, Norfolk, United Kingdom). The incapacitance tester has a chamber on top with an outwardly sloping front wall that supports a rat's front limbs, and two weight sensing pads, one for each hind paw, that facilitates this determination. Each data point is the mean of three readings of 5 seconds duration. The hind paw weight bearing differentials were expressed in grams and calculated as the [sum of (the weight in grams placed on the control limb minus the weight in grams placed on the contralateral test limb for each animal in the inducement or treatment animal group)] divided by the number of animals in the inducement or treatment animal group. […] All results were statistically analyzed by comparing the average results for an induction or treatment group with the average result for its control group at the same time point using analysis of covariance (“ANCOVA”) followed by the Hochberg's procedure and those with statistical significance had ρ<0.05 unless otherwise noted.\nIt should also be appreciated that the IL-6 and IL-6sR used as described in all of the below examples was the commercially available recombinant human IL-6 and recombinant human IL-6sR purchased from R&D Systems, Minneapolis, Minn.\nIt should also be appreciated that prior to injection of hrIL-6, hrIL-6sR, or hrIL-6 plus hrIL-6sR in all of the below examples, rats were anesthetized with 5% volume/volume (“v/v”) isoflurane gas until knocked down and maintained with 2% v/v isoflurane. Rats became fully conscious about 5 minutes after isoflurane administration was discontinued.\nHind-paw weight differentials between the right joint and the left joint of male Wistar rats (150 g) were determined for 30 rats with the incapacitance tester. Rats were then randomly divided into five groups of 6 rats each, a control group and four inducement groups. Rats were anesthetized with 5% v/v isoflurane gas until knocked down and maintained with 2% v/v isoflurane gas. At Time 0, each rat was injected with 50 μL of PBS into a control knee. In addition, each rat in the control group was injected with 50 μL of PBS into the contralateral test knee and each rat in each of the four inducement groups was injected with 50 μL of PBS containing 10 ng, 30 ng, 100 ng, or 300 ng, respectively, of hrIL-6. The injections were done through the patellar ligament into the knee joint space. The isoflurane gas was discontinued. At Times 1, 3, and 6 hours, pain in each rat was characterized by measuring hind paw weight bearing differentials with the incapacitance tester, and the results were statistically analyzed."}, "[3]": {"test_system": "(IL-6 plus IL-6sR)-induced arthritic pain in rat", "assay": "IL6 Rat: dose response alleviation of (IL-6 plus IL-6sR)-induced arthritic pain (Method Example 1)", "details": "oral dose of 10 mg/kg or greater (1, 3, 10, 30 mg/kg tested) 1 hour before 100 ng hrIL-6 + 300 ng hrIL-6sR; measured 1 hour post injection", "from_the_text": "(§2) Animals were fed standard rat chow with water available ad libitum.\n(§3) Each data point is the mean of three readings of 5 seconds duration."}, "[4]": {"test_system": "(IL-6 plus IL-6sR)-induced arthritic pain in rat", "assay": "IL6 Rat: time course of alleviation of (IL-6 plus IL-6sR)-induced arthritic pain (Method Example 2)", "details": "10 mg/kg oral 1 hour before 100 ng hrIL-6 + 300 ng hrIL-6sR; Time 1 and 3 hours post injection", "from_the_text": "as §2, §3"}},
  "data": [
    {"molecule": "hrIL-6: commercially available recombinant human IL-6 purchased from R&D Systems", "values": [
      {"measurement": "induction of pain in the joint (hind paw weight distribution)", "setting": "[1]; 100 ng alone", "result": "will induce pain"},
      {"measurement": "change in hind paw weight differential compared to the vehicle control group", "setting": "[2]; 10 ng intra-articular in 50 μL PBS, 1, 3, or 6 hours post injection", "result": "did not produce a statistically significant change"},
      {"measurement": "change in hind paw weight differential compared to the vehicle control group", "setting": "[2]; 30 ng intra-articular in 50 μL PBS, 1 and 3 hours post injection", "result": "statistically significant change"},
      {"measurement": "change in hind paw weight differential compared to the vehicle control group", "setting": "[2]; 30 ng intra-articular in 50 μL PBS, 6 hours post injection", "result": "non-significant"},
      {"measurement": "change in hind paw weight differential compared to the vehicle control group", "setting": "[2]; 100 ng intra-articular in 50 μL PBS, 1, 3, and 6 hours post injection", "result": "statistically significant change"},
      {"measurement": "change in hind paw weight differential compared to the vehicle control group", "setting": "[2]; 300 ng intra-articular in 50 μL PBS, 1, 3, and 6 hours post injection", "result": "statistically significant change"},
      {"measurement": "amount that will induce pain in the joint on intra-articular injection", "setting": "[2]; hrIL-6 only, rat knee joint", "result": "more than 10 ng"}
    ]},
    {"molecule": "CS(=O)(=O)c1ccc(C2=C(c3ccccc3)C(=O)OC2)cc1", "note": "[rofecoxib]", "values": [
      {"measurement": "percent inhibition of a change in hind paw weight distribution, compared to test compound vehicle alone", "setting": "[3]", "result": "inhibit pain in a statistically significant manner"},
      {"measurement": "change in hind paw weight distribution (pain) compared to test compound vehicle alone", "setting": "[4]", "result": "reduced pain in a statistically significant manner"}
    ]},
    {"molecule": "B1", "values": [
      {"measurement": "induction of pain in the joint (hind paw weight distribution)", "setting": "[1]; 300 ng alone", "result": "will induce pain"}
    ]}
  ]
}
